Experimental data from patent US20050282910A1, “Methods of application of chemical compounds having therapeutic activities in treating cancers” (priority 2003, published 2005).
In brackets after ≈: the same amount, converted by molar mass. Read-outs that look alike come from different tables or passages of the source.

Tests used:
[1] = system: KBv200; assay: Reversal of drug resistance by ethanol extracts of Schisandra chinensis fruit, MTT cytotoxicity of anticancer agents; conditions: Homo sapiens, KBv200, 72 h, read-out: IC50 (ng/ml) −ethanol extract
[2] = system: human leukemia MDR cell line K562/adr; assay: Reversal of P-glycoprotein-mediated drug resistance by Schisandrin A, Schisandrol A, Schisantherin A, MTT cytotoxicity of anticancer agents; assay type: cell-based; conditions: for IC50: Homo sapiens
Procedure: Assays were carried out in triplicate against human leukemia MDR cell line K562/adr, human breast cancer MDR cell line MCF7/adr, and human epidermoid carcinoma MDR cell line KBv200.

[3] = system: human epidermoid carcinoma MDR cell line KBv200; assay: cells; conditions: KBv200, 72 h
[4] = system: human breast cancer MDR cell line MCF7/adr; conditions: 72 hours
[5] = system: human breast cancer MDR cell line MCF7/adr; assay: cells; conditions: NCI/ADR-RES, 72 h
[6] = system: MCF7/adr; assay: Reversal of drug resistance by ethanol extracts of Schisandra chinensis fruit, MTT cytotoxicity of anticancer agents
[7] = system: K562/adr; assay: as above; assay type: cell-based, human; conditions: anticancer agent in the presence of ethanol extracts (50 μg/ml), 72 hours
Procedure: Assays were carried out in triplicate against human MDR cancer cell lines K562/adr, KBv200, and MCF7/adr. […] Alternatively, flow cytometry assays using FACS Calibur equipped with software Cellquest 3.1f (Becton-Dickinson, Holbrook, N.J.) were applied to count the cell numbers in each sample.

[8] = system: human epidermoid carcinoma MDR cell line KBv200; conditions: 72 hours
[9] = system: HL60/adr; assay: Reversal of MRP1-mediated drug resistance, MTT cytotoxicity of anticancer agents; assay type: cell-based, human
Procedure: Assays were carried out in triplicate against MDR cancer cell HL60/adr. MTT assays as described previously (X.

[10] = molecular target: T1, MRP1 (Homo sapiens, UniProt P33527); assay: Daunorubicin accumulation in HL60/adr cells (MRP1-mediated drug efflux), flow cytometry; assay type: cell-based; conditions: 2 μg/ml daunorubicin; 60 minutes; FIG. 7
T1 construct: human cancer cell line HL60/adr, an MDR cell line characterized by MRP1 overexpression; endogenous in cells; host or cells: HL60/adr (human MDR cancer cell line)
T1 sequence (P33527 whole entry): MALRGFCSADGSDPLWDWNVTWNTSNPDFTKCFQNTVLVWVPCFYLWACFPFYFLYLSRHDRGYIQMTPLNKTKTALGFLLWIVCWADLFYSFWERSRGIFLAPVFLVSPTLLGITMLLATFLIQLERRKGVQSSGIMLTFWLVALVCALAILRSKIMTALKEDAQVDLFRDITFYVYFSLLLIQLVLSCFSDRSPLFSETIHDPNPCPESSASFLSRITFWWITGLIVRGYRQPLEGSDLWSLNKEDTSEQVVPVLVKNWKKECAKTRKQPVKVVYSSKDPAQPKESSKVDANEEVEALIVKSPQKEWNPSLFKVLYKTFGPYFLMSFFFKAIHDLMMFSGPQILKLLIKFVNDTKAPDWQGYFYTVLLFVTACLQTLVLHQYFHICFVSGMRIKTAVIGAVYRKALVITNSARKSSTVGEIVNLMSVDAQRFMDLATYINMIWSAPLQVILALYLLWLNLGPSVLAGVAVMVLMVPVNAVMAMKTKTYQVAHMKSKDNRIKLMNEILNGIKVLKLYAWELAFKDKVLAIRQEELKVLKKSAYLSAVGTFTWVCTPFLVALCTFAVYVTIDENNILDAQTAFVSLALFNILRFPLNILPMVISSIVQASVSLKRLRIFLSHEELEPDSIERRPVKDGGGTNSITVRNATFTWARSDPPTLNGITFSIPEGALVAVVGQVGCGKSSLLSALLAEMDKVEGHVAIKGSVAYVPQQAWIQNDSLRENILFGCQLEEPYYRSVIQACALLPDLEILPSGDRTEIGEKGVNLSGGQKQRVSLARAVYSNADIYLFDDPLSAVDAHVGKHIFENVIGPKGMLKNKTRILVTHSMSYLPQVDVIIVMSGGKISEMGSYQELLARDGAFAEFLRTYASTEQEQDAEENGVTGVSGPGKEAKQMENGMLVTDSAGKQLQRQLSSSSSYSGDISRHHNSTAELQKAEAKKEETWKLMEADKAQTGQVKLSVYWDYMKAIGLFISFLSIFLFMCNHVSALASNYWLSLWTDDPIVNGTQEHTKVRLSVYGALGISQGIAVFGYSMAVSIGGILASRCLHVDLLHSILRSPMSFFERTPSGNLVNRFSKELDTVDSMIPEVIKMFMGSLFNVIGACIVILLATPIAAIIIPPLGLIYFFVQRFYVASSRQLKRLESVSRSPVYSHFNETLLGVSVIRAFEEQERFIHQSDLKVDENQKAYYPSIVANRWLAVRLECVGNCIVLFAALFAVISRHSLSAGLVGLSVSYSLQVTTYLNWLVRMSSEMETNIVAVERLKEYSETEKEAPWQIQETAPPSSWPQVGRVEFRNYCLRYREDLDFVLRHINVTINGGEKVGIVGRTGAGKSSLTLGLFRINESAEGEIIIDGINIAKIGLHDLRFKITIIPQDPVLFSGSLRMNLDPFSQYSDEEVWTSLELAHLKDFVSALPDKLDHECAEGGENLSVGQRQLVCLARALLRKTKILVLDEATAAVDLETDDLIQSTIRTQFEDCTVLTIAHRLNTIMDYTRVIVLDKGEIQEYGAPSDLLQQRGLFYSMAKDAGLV
From the text: MRP1 functions as a drug pump that unilaterally pumps the anticancer agents out of MDR cancer cells. Inhibition of MRP1 results in an increase of intracellular drug concentration within cancer cells.

[11] = read-out: IC50 (ng/ml) −Schisandrin A
[12] = read-out: IC50 (ng/ml) −Schisantherin A
[13] = anticancer agent in the presence of Schisandrin A (10 μg/ml)
[14] = anticancer agent in the presence of Schisantherin A (10 μg/ml)

COc1cccc2c1C(=O)c1c(O)c3c(c(O)c1C2=O)C[C@@](O)(C(C)=O)C[C@@H]3O[C@H]1C[C@H](N)[C@H](O)[C@H](C)O1 [Daunorubicin]
IC50 [1]: 20 ± 8 ng/mL
IC50 ([2]; K562/adr, anticancer agent in the absence of Schisandrin A, 72 hours, read-out: IC50 (ng/ml) −Schisandrin A): 4780 ± 1380 ng/mL
IC50 ([2]; K562/adr, anticancer agent in the absence of Schisantherin A, 72 hours, read-out: IC50 (ng/ml) −Schisantherin A): 1300 ± 293 ng/mL
IC50 (ng/ml) +Schisandrin A ([2]; K562/adr, anticancer agent in the presence of Schisandrin A (10 μg/ml), 72 hours): 67.2 ± 21.3 ng/mL
IC50 (ng/ml) +Schisantherin A ([2]; K562/adr, anticancer agent in the presence of Schisantherin A (10 μg/ml), 72 hours): 71 ± 22 ng/mL
IC50 [3, 11]: 26.9 ± 8.1 ng/mL (≈ 0.051 µM)
IC50 [3, 12]: 26.9 ± 4.3 ng/mL (≈ 0.051 µM)
IC50 (ng/ml) +Schisandrin A [4, 13]: 245 ± 46 ng/mL
IC50 (ng/ml) +Schisantherin A [4, 14]: 58.8 ± 21 ng/mL
IC50 [5, 11]: 2560 ± 413 ng/mL (≈ 4.85 µM)
IC50 [5, 12]: 812 ± 193 ng/mL (≈ 1.54 µM)
IC50 ([6]; Homo sapiens, NCI/ADR-RES, 72 h, read-out: IC50 (ng/ml) −ethanol extract): 320 ± 71 ng/mL
IC50 (ng/ml) +ethanol extract ([6]; MCF7/adr, anticancer agent in the presence of ethanol extracts (50 μg/ml), 72 hours): 31 ± 10 ng/mL
IC50 (ng/ml) +ethanol extract [7]: 150 ± 19 ng/mL
IC50 (ng/ml) +Schisandrin A [8, 13]: 2.47 ± 0.9 ng/mL
IC50 (ng/ml) +Schisantherin A [8, 14]: 3.4 ± 1.3 ng/mL

O=C1c2c(O)ccc(O)c2C(=O)c2c(NCCNCCO)ccc(NCCNCCO)c21 [Mitoxantrone]
IC50 (ng/ml) +Schisandrin B ([9]; HL60/adr, anticancer agent in the presence of Schisandrin B (10 μg/ml), 72 hours): <1 ng/mL
RF (reversal folds of drug resistance) ([9]; HL60/adr, by Schisandrin B (10 μg/ml)): >68
IC50 ([9]; Homo sapiens, HL60/ADR, 72 h, HL60/adr, anticancer agent in the absence of Schisandrin B, 72 hours, read-out: IC50 (ng/ml) −Schisandrin B): 68 ng/mL

COc1cc2c(c(OC)c1OC)-c1c(cc(OC)c(OC)c1OC)C[C@H](C)[C@H](C)C2 [Schisandrin A]
daunorubicin accumulation within HL60/adr cells (in words) [10]: increased with the increasing concentration
drug sensitivity of HL60/adr toward the anticancer agents (in words) ([9]; compound 10 μg/ml): enhanced
sensitivity of MDR cancer cell K562/adr to daunorubicin (in words) ([2]; FIG. 3): increase the sensitivity
increase of sensitivity of K562/adr to daunorubicin ([2]; Schisandrin A 1 μg/ml, FIG. 3): about 8 folds
increase of sensitivity of K562/adr to daunorubicin ([2]; Schisandrin A 10 μg/ml, FIG. 3): ~71 folds
increase of sensitivity of K562/adr to daunorubicin ([2]; Schisandrin A 20 μg/ml, FIG. 3): ~100 folds
